± gives the standard deviation of the averaged measurements.
Experiments:
Experiment in all cases: level (log10 ratio to DMSO vehicle control); higher = higher biomarker level / cell amount than vehicle control
[1] = compound: C=CC(=O)OCC(F)(F)C(F)(F)C(F)(F)C(F)(F)C(F)(F)C(F)(F)C(F)(F)C(F)F [1H,1H,9H-Perfluorononyl acrylate]; settings: in DMSO
Method: (§1)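 BioMAP Diversity Plus panel of 12 human primary cell co-culture systems (3C, 4H, LPS, SAg, BT, BF4T, BE3C, CASM3C, HDF3CGF, KF3CT, MyoF, Mphg). Compounds were added 1 h before stimulation and left for 24 h (MyoF 48 h; BT 72 h for soluble read-outs or 6 d for IgG). Biomarkers were read by ELISA, cytotoxicity by SRB, PBMC viability and proliferation by Alamar Blue. Each well value was divided by the mean of 8 DMSO control wells on the same plate and log10 transformed; duplicate blinded samples were tested at 4 concentrations.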

[2] = compound: C=CC(=O)OCC(F)(F)C(F)(F)C(F)(F)C(F)(F)COC(=O)C=C [1H,1H,6H,6H-Perfluorohexane-1,6-diol diacrylate]; settings: 6700 nM; in DMSO
Method: as §1

[3] = compound: FC(F)(F)C(F)(F)C(F)(F)C(F)(F)CCI [1H,1H,2H,2H-Perfluorohexyl iodide]; settings: in DMSO
Method: as §1

[4] = compound: O=C(O)C(F)(F)C(F)(F)C(F)(F)C(F)(F)C(F)(F)C(F)(F)C(F)(F)F [Ammonium perfluorooctanoate]; settings: in DMSO
Method: as §1

[5] = compound: O=P(O)(O)CCC(F)(F)C(F)(F)C(F)(F)C(F)(F)C(F)(F)C(F)(F)F [2-(Perfluorohexyl)ethylphosphonic acid]; settings: in DMSO
Method: as §1

[6] = compound: OCC(F)(F)C(F)(F)C(F)(F)C(F)(F)C(F)(F)C(F)(F)C(F)(F)C(F)(F)C(F)(F)C(F)(F)C(F)(F)F [11:1 Fluorotelomer alcohol]; settings: in DMSO
Method: as §1

[7] = compound: OCCCCC(F)(F)C(F)(F)C(F)(F)C(F)(F)F [4:4 Fluorotelomer alcohol]; settings: in DMSO
Method: as §1

| Test System | level (log10) ([1]; 6700 nM) | level (log10) ([1]; 20000 nM) | level (log10) ([1]; 60000 nM) | level (log10) [2] | level (log10) ([3]; 6700 nM) | level (log10) ([3]; 20000 nM) | level (log10) ([3]; 60000 nM) | level (log10) ([4]; 6700 nM) | level (log10) ([4]; 20000 nM) | level (log10) ([4]; 60000 nM) | level (log10) ([5]; 6700 nM) | level (log10) ([5]; 20000 nM) | level (log10) ([5]; 60000 nM) | level (log10) ([6]; 1100 nM) | level (log10) ([6]; 3300 nM) | level (log10) ([6]; 10000 nM) | level (log10) ([7]; 6700 nM) | level (log10) ([7]; 20000 nM) | level (log10) ([7]; 60000 nM) |
| --- | --- | --- | --- | --- | --- | --- | --- | --- | --- | --- | --- | --- | --- | --- | --- | --- | --- | --- | --- |
| CASM3C:PAI-I | 0.007 ± 0.0057 | 0.0045 ± 0.0035 | -0.005 ± 0.028 | 0.0005 ± 0.0021 | 0.0135 ± 0.022 | 0.0165 ± 0.022 | 0.0125 ± 0.044 | 0.0005 ± 0.00071 | -0.001 ± 0.0028 | 0.0085 ± 0.0078 | -0.0075 ± 0.00071 | -0.0055 ± 0.005 | 0.007 ± 0.013 | -0.001 ± 0.0071 | -0.0055 ± 0.005 | -0.0005 ± 0.015 | 0.017 ± 0.016 | 0.013 ± 0.023 | 0.0085 ± 0.026 |
| lMphg:SRB | -0.003 ± 0.0014 | -0.005 ± 0.0042 | -0.005 ± 0.0057 | -0.0075 ± 0.0035 | -0.008 ± 0.011 | -0.003 ± 0.0028 | 0 ± 0.021 | -0.0125 ± 0.0035 | -0.004 ± 0.0028 | 0.0015 ± 0.005 | -0.006 ± 0.0071 | -0.0025 ± 0.013 | 0.009 ± 0.017 | 0.0045 ± 0.00071 | 0.001 | -0.0205 ± 0.005 | -0.015 ± 0.0028 | -0.0055 ± 0.0035 | 0.004 ± 0.033 |
| CASM3C:CD106/VCAM-1 | -0.0885 ± 0.028 | -0.0715 ± 0.07 | -0.12 ± 0.067 | -0.128 ± 0.02 | -0.023 ± 0.016 | -0.057 ± 0.0057 | -0.031 ± 0.075 | 0.0115 ± 0.015 | -0.0085 ± 0.013 | -0.021 ± 0.025 | -0.0105 ± 0.035 | 0.041 ± 0.014 | 0.0775 ± 0.044 | -0.004 ± 0.024 | 0 ± 0.023 | -0.0105 ± 0.019 | -0.015 ± 0.03 | -0.0205 ± 0.00071 | 0.006 ± 0.027 |
| MyoF:Decorin | -0.014 ± 0.024 | -0.0655 ± 0.0021 | -0.065 ± 0.052 | -0.083 ± 0.011 | 0.0085 ± 0.012 | 0.011 ± 0.025 | 0.024 ± 0.075 | 0.0055 ± 0.0035 | 0.0075 ± 0.00071 | -0.0355 ± 0.057 | -0.0035 ± 0.023 | 0.0075 ± 0.0021 | 0.0385 ± 0.00071 | 0.0065 ± 0.028 | 0.013 ± 0.021 | 0.0255 ± 0.0021 | 0.0115 ± 0.0035 | -0.0015 ± 0.028 | 0.033 ± 0.057 |
| 3C:CD54/ICAM-1 | -0.009 ± 0.0057 | -0.0085 ± 0.012 | -0.0105 ± 0.015 | -0.028 ± 0.0085 | -0.01 ± 0.041 | -0.027 ± 0.025 | -0.009 ± 0.054 | 0.004 ± 0.014 | 0.0065 ± 0.0064 | 0.0065 ± 0.00071 | -0.0165 ± 0.012 | -0.018 ± 0.0014 | -0.0095 ± 0.005 | 0.011 ± 0.03 | 0.0305 ± 0.028 | 0.0385 ± 0.018 | 0 ± 0.037 | -0.017 ± 0.041 | -0.002 ± 0.047 |
| KF3CT:CXCL9/MIG | -0.0145 ± 0.0035 | -0.007 ± 0.017 | -0.019 ± 0.0057 | -0.034 ± 0.0071 | 0.004 ± 0.0099 | 0.0095 ± 0.011 | 0.0135 ± 0.033 | 0.005 ± 0.0014 | 0.0095 ± 0.0035 | 0.0115 ± 0.016 | 0.0055 ± 0.0021 | -0.001 ± 0.0099 | 0.006 ± 0.0071 | 0.0015 ± 0.0035 | -0.004 | 0.005 ± 0.011 | 0.007 ± 0.023 | 0.0105 ± 0.011 | 0.0125 ± 0.022 |

Source: the supplement of paper PMC10331698
